Like-named read-outs stand apart in the source and are kept apart here.
Key:
[1] = system: human allogenic MLR (human peripheral blood lymphocytes); experiment: human allogenic MLR-suppressive activity, 3H-thymidine uptake; type: cell-based
Procedure: The human allogenic MLR-suppressive activity was assayed as follows:
Human peripheral blood lymphocytes obtained by Ficoll-Paque density gradient centrifugation of normal human peripheral blood were suspended in the RPMI1640 culture medium supplemented with 10% FCS, placed in a plastic dish, and cultured in an atmosphere of 5% carbon dioxide and 95% air at 37° C. for 2 hours. After termination of culture, the supernatant after gentle pipetting was collected and centrifuged (1000 rpm, for 5 minutes) to obtain plastic-nonadherent cells. The plastic-nonadherent cells were allowed to pass through a nylon-wool column to give nylon-nonadherent cells, and the concentration of the cell suspension was adjusted to 4×10^6 cells/ml by using the RPMI1640 culture medium supplemented with 10% FCS, and used as the responder cell suspension.
The plastic-adherent cells were removed from the plastic dish by vigorous pipetting after addition of phosphate buffered saline (PBS) supplemented with 5% FCS and 0.02% disodium ethylenediaminetetraacetic acid (EDTA). The plastic-adherent cells were treated with 40 μg/ml of mitomycin C at 37° C. for 60 minutes, washed three times, and suspended to the concentration of 4×10^6 cells/ml in the RPMI1640 culture medium supplemented with 10% FCS. The resultant suspension was used as the stimulator cell suspension.
After termination of culture, 37 KBq/well of ^3 H-thymidine was added, and after 18 hours of culture, the cells were harvested by a cell-harvester. The radioactivity incorporated into the cells was measured by a liquid scintillation counter, which was used as an index of blastogenic response of lymphocytes in human allogenic MLR. The suppression of human allogenic MLR was evaluated by calculating the percent suppression by the following formula. [formula]

[2] = system: allo-specific cytotoxic antibody in serum of EL4-immunized BALB/c mice; experiment: suppression of allo-specific cytotoxic antibody production induced by allogenic cell immunization of mouse; type: in vivo
Procedure: Male 5- to 7-week-old BALB/c mice were immunized with leukemia cell EL4 derived from C57BL/6 mice (10^7 cells/mouse, intraperitoneal administration) in the same way as in Experiment Example 9, and the […] Nine to ten days after immunization, a serum was collected from the mice. Fifty μl of the two-fold serial dilution of the serum, 50 μl of a guinea pig complement and EL4 cell suspension labelled with ^51 Cr as the target cell (5×10^4 cells/ml, 100 μl) were together added to a 96-well microtest plate. After incubation at 37° C. for 1 hour, the amount of ^51 Cr released in the supernatant was measured, and the complement-dependent cytotoxicity was calculated by the following formula. [formula]
The value of allo-specific cytotoxic antibody determined as above was expressed by the titer calculated on the basis of the concentration at which the releasing amount of ^51 Cr was 50% of that of ^51 Cr-labelled target cells treated with 0.1 N HCl.

[3] = 0.003 mg/kg/day po × 10, Table 10D
[4] = 0.01 mg/kg/day po × 5, Table 10C
[5] = 0.01 mg/kg/day po × 10, Table 10D
[6] = 0.03 mg/kg/day po × 5, Table 10C
[7] = 0.03 mg/kg/day po × 10, Table 10D
[8] = 0.1 mg/kg/day po × 5, Table 10C
[9] = 0.1 mg/kg/day po × 10, Table 10D
[10] = 0.3 mg/kg/day po × 5, Table 10C
[11] = 0.3 mg/kg/day po × 10, Table 10D

CCCCCCCCCCCCC/C=C/C[C@@H](O)[C@H](O)[C@@](N)(CO)C(=O)O [Example 5]
3H-thymidine uptake ([1]; 0.00001 μg/ml, Donor A/Donor B): 14723 cpm
3H-thymidine uptake ([1]; 0.0001 μg/ml, Donor A/Donor B): 8052 cpm
3H-thymidine uptake ([1]; 0.0001 μg/ml, Donor C/Donor D): 15723 cpm
3H-thymidine uptake ([1]; 0.001 μg/ml, Donor A/Donor B): 5363 cpm
3H-thymidine uptake ([1]; 0.001 μg/ml, Donor C/Donor D): 7145 cpm
3H-thymidine uptake ([1]; 0.01 μg/ml, Donor A/Donor B): 5042 cpm
3H-thymidine uptake ([1]; 0.01 μg/ml, Donor C/Donor D): 5878 cpm
3H-thymidine uptake ([1]; 0.1 μg/ml, Donor A/Donor B): 4660 cpm
3H-thymidine uptake ([1]; 0.1 μg/ml, Donor C/Donor D): 4703 cpm
3H-thymidine uptake ([1]; 1 μg/ml, Donor A/Donor B): 5545 cpm
3H-thymidine uptake ([1]; 1 μg/ml, Donor C/Donor D): 5601 cpm
suppressive activity in human allogenic MLR (in words) ([1]; 1 to 0.0001 μg/ml): exhibited suppressive activity in human allogenic MLR in a concentration-dependent manner
inhibition at 10 pg/mL ([1]; Homo sapiens, Lymphocyte, 0.00001 μg/ml, Donor A/Donor B, read-out: Suppression): 0%
inhibition at 0.0001 µg/mL ([1]; Homo sapiens, Lymphocyte, 0.0001 μg/ml, Donor A/Donor B, read-out: Suppression): 34.4%
inhibition at 0.0001 µg/mL ([1]; Homo sapiens, Lymphocyte, 0.0001 μg/ml, Donor C/Donor D, read-out: Suppression): 22.1%
inhibition at 0.001 µg/mL ([1]; Homo sapiens, Lymphocyte, 0.001 μg/ml, Donor A/Donor B, read-out: Suppression): 58.5%
inhibition at 0.001 µg/mL ([1]; Homo sapiens, Lymphocyte, 0.001 μg/ml, Donor C/Donor D, read-out: Suppression): 65.8%
inhibition at 0.01 µg/mL ([1]; Homo sapiens, Lymphocyte, 0.01 μg/ml, Donor A/Donor B, read-out: Suppression): 61.4%
inhibition at 0.01 µg/mL ([1]; Homo sapiens, Lymphocyte, 0.01 μg/ml, Donor C/Donor D, read-out: Suppression): 72.3%
inhibition at 0.1 µg/mL ([1]; Homo sapiens, Lymphocyte, 0.1 μg/ml, Donor A/Donor B, read-out: Suppression): 64.8%
inhibition at 0.1 µg/mL ([1]; Homo sapiens, Lymphocyte, 0.1 μg/ml, Donor C/Donor D, read-out: Suppression): 78.3%
inhibition at 1 µg/mL ([1]; Homo sapiens, Lymphocyte, 1 μg/ml, Donor A/Donor B, read-out: Suppression): 56.9%
inhibition at 1 µg/mL ([1]; Homo sapiens, Lymphocyte, 1 μg/ml, Donor C/Donor D, read-out: Suppression): 73.7%
Allogenic cell-specific antibody in serum, suppression [2, 3]: 28.3%
Allogenic cell-specific antibody in serum, titer [2, 3]: 147 ± 43
Allogenic cell-specific antibody in serum, suppression [2, 4]: 0%
Allogenic cell-specific antibody in serum, titer [2, 4]: 318 ± 75
Allogenic cell-specific antibody in serum, suppression [2, 5]: 45.4%
Allogenic cell-specific antibody in serum, titer [2, 5]: 112 ± 66
Allogenic cell-specific antibody in serum, suppression [2, 6]: 37.8%
Allogenic cell-specific antibody in serum, titer [2, 6]: 186 ± 100
Allogenic cell-specific antibody in serum, suppression [2, 7]: 40.0%
Allogenic cell-specific antibody in serum, titer [2, 7]: 123 ± 43
Allogenic cell-specific antibody in serum, suppression [2, 8]: 61.5%
Allogenic cell-specific antibody in serum, titer [2, 8]: 115 ± 19
Allogenic cell-specific antibody in serum, suppression [2, 9]: 71.2%
Allogenic cell-specific antibody in serum, titer [2, 9]: 59 ± 38
Allogenic cell-specific antibody in serum, suppression [2, 10]: 69.6%
Allogenic cell-specific antibody in serum, titer [2, 10]: 91 ± 67
Allogenic cell-specific antibody in serum, suppression [2, 11]: 76.1%
Allogenic cell-specific antibody in serum, titer [2, 11]: 49 ± 26
Allogenic cell-specific antibody in serum, suppression ([2]; 1 mg/kg/day po × 5, Table 10C): 82.5%
Allogenic cell-specific antibody in serum, titer ([2]; 1 mg/kg/day po × 5, Table 10C): 52 ± 27
Allogenic cell-specific antibody in serum, suppression ([2]; 1 mg/kg/day po × 10, Table 10D): 76.6%
Allogenic cell-specific antibody in serum, titer ([2]; 1 mg/kg/day po × 10, Table 10D): 48 ± 37
allo-specific cytotoxic antibody production in serum (in words) ([2]; intraperitoneal or oral, Tables 10A to 10D): strongly suppresses allo-specific cytotoxic antibody production in serum

— US5068247A, “2-aminopentanoic acid compounds and their use as immunosuppressants” (priority 1989, dated 1991)
